Patent US20030166663A1, “Use” (priority 2001, published 2003)
Several values for one entry are separate records, joined by “and”; a condition that tells them apart may be missing. Equal entries are not always repeated. Where two headings read alike, the source gives them in different places.

What was measured:
[1] = Determination of plasma concentration at steady state (Css, tot) in ob/ob mice; type: in vivo, mouse; conditions: continuous s.c. infusion, read-out: Css, tot (total plasma exposure at steady state)
Description: (§1) The animals are weighed at the start of the study and randomized based on body weight. Alzet osmotic minipumps (Model 2001D; infusion rate 8 μl/h) are used and loaded essentially as recommended by the Alzet technical information manual (Alza Scientific Products, 1997; Teeuwes and Yam, 1976). Continuous subcutaneous infusion with 24 hours duration is used. The minipumps are either filled with different concentrations of test compounds dissolved in vehicle or with only vehicle solution and maintained in vehicle pre-warmed to 37° C. (approx. 1 h). The minipumps are implanted subcutaneously in the neck/back region under short acting anesthesia (metofane/enflurane). This surgical procedure lasts approximately 5 min. It takes about 3 h to reach steady state delivery of the compound.
(§2) The weights of the food pellets are measured at 5 p.m. and at […]. for two days before (baseline) and one day after the implantation of the osmotic minipumps. The weighing is performed with a computer assisted Mettler Toledo PR 5002 balance. Occasional spillage is corrected for. At the end of the study the animals are killed by neck dislocation and trunk blood sampled for later analysis of plasma drug concentrations.
The plasma sample proteins are precipitated with methanol, centrifuged, and the supernatant is transferred to HPLC vials and injected into the liquid chromatography/mass spectrometric system. The mass spectrometer is set for electrospray positive ion mode and Multiple Reaction Monitoring.
A linear regression analysis of the standards forced through the origin is used to calculate the concentrations of the unknown samples.

ob/ob mice = assay: Effect of compounds on food intake in ob/ob mice (15 h food consumption, s.c. minipump infusion); type: in vivo, mouse; conditions: for Food intake, % of basal level, Mean: 15 h food consumption; for Inhibition (%) Based on basal (food intake): relative to vehicle
Description: Obese (ob/ob) mouse is selected as the primary animal model for screening as this mutant mouse consumes high amounts of food resulting in a high signal to noise ratio. To further substantiate and compare efficacy data, the effect of the compounds on food consumption is also studied in wild type (C57BL/6J) mice. The amount of food consumed during 15 hours of infusion of compounds is recorded.
Male mice (obese C57BL/6JBom-Lep^ob and lean wild-type C57B1/6JBom; Bomholtsgaard, Denmark) 8-9 weeks with an average body weight of 50 g (obese) and 25 g (lean) are used in all the studies. The animals are housed singly in cages at 23±1° C., 40-60 % humidity and have free access to water and standard laboratory chow. The 12/12-h light/dark cycle is set to lights off at 5 p.m. The animals are conditioned for at least one week before start of study.
The test compounds are dissolved in solvents suitable for each specific compound such as cyclodextrin, cyclodextrin/methane sulfonic acid, polyethylene glycol/methane sulfonic acid, or saline. Fresh solutions are made for each study. […] The purity of the test compounds is of analytical grade.
as §1, §2
Food consumption for 15 hours is measured for the three consecutive days and the percentage of basal level values is derived for each animal from the day before and after treatment. The values are expressed as mean±SD and mean±SEM from eight animals per dose group. Statistical evaluation is performed by Kruskal-Wallis one-way ANOVA using the per cent basal values. If statistical significance is reached at the level of p<0.05, Mann-Whitney U-test for statistical comparison between control and treatment groups is performed.

[2] = mouse, plasma, subcutaneous, nominal 10 mg/kg/day
[3] = mouse, plasma, subcutaneous, nominal 30 mg/kg/day
[4] = mouse, plasma, subcutaneous, nominal 100 mg/kg/day
[5] = nominal 10 mg/kg/day s.c. infusion
[6] = nominal 30 mg/kg/day s.c. infusion
[7] = nominal 100 mg/kg/day s.c. infusion

SMILES	concentration at 24 h [1, 2] [nM]	concentration at 24 h [1, 3] [nM]	concentration at 24 h [1, 4] [nM]	Food intake, % of basal level, Mean (ob/ob mice; [5])	Food intake, % of basal level, Mean (ob/ob mice; [6])	Food intake, % of basal level, Mean (ob/ob mice; [7])	Inhibition (%) Based on basal (food intake) (ob/ob mice; [5])	Inhibition (%) Based on basal (food intake) (ob/ob mice; [6]) [%]	Inhibition (%) Based on basal (food intake) (ob/ob mice; nominal 30 mg/kg/day s.c. infusion, listed as 5-Chloro-3-methyl-benzo[b]thiophene-2-sulfonic acid (4-[4-methylpiperazin-1-yl]q) [%]	Inhibition (%) Based on basal (food intake) (ob/ob mice; [7]) [%]	Inhibition (%) Based on basal (food intake) (ob/ob mice; nominal 100 mg/kg/day s.c. infusion, listed as 5-Chloro-3-methyl-benzo[b]thiophene-2-sulfonic acid (4-[4-methylpiperazin-1-yl]q) [%]	Inhibition (%) Based on basal (food intake) (ob/ob mice; nominal 30 mg/kg/day s.c. infusion, listed as 4-n-Butyl-N-(4-piperazin-1-yl-quinolin-6-yl)benzenesulfonamide) [%]	Inhibition (%) Based on basal (food intake) (ob/ob mice; nominal 100 mg/kg/day s.c. infusion, listed as 4-n-Butyl-N-(4-piperazin-1-yl-quinolin-6-yl)benzenesulfonamide) [%]	concentration at 24 h ([1]; nominal 10 mg/kg/day)
Cc1c(S(=O)(=O)Nc2ccc3nccc(N4CCN(C)CC4)c3c2)sc2ccc(Cl)cc12 [EXAMPLE 1, 5-chloro-3-methyl-benzo[b]thiophene-2-sulphonic acid (4-[4-methylpiperazin-1-yl]quinolin-6-yl)amide]	1000	1620	1810	62.5 % of basal level	49.3 % of basal level	49.9 % of basal level	4.9%	25.0	25	24.1	24			
CCCCc1ccc(S(=O)(=O)Nc2ccc3nccc(N4CCNCC4)c3c2)cc1 [EXAMPLE 2, 4-n-butyl-N-(4-piperazin-1-yl-quinolin-6-yl)benzenesulphonamide]	370	940	1290	61.0 % of basal level	45.5 % of basal level	43.6 % of basal level	6.5%	30.2		33.2		30	33	
Clc1cccc(N2CCNCC2)c1 [mCCP, m-chlorophenylpiperazine, reference compound]				31.2 % of basal level and 39.4 % of basal level			52.5% and 39.6%							610 nM and 780 nM
